Results taken from article PMC7177633, “Effective Cellular Transport of Ortho-Halogenated Sulfonamide Derivatives of Metformin Is Related to Improved Antiproliferative Activity and Apoptosis Induction in MCF-7 Cells” (International Journal of Molecular Sciences, 2020).

Experiments:
MCF-7 cells = assay: Cell viability WST-1 assay, MCF-7; type: cell-based; details: Homo sapiens, MCF7; WST-1, 24 h, mean ± SD (n = 6–8); read-out: IC50 inhibition of MCF-7 cells' viability
Summary of the method: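 Cells seeded 1 × 10^4/well, grown 24 h, then treated with compounds for 24 h at 37 °C. WST-1 reagent added for 1.5 h, absorbance at 450 nm, normalised to medium-only control (n = 8). IC50 from nonlinear log(concentration)-response fit.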

MDA-MB-231 cells = assay: Intracellular GSH and GSSG, MDA-MB-231; type: cell-based, human
Method: The quantitative determination of glutathione and glutathione disulfide was performed using the enzymatic recycling method according to the protocol of Rahman. The cells were seeded at a density of 2 × 10^5 per well in a 6-well plate and cultured for 48 h. Then, the cells were treated with tested compounds 1, 4 and 7 at their respective ¼ and ½ IC50 values for MCF-7 and MDA-MB-231 cells. Additionally, controls with pure medium, AAPH (2,2′-Azobis(2-methylpropionamidine) dihydro-chloride, Sigma Aldrich, St. Louis, MO, USA) and ascorbic acid (Polish Chemical Reagents, Poland) were performed. The cells were incubated with compounds for another 24 h, then washed twice with 2 mL of cold, Ca^2+-/Mg^2+-free PBS (Biomed Lublin, Lublin, Poland). The cells were harvested using 1-mL accutase (Sigma Aldrich, St. Louis, MO, USA), and the wells were washed with 1 mL of cold growth medium. The cells were transferred to prechilled 2.0-mL Eppendorf tubes and centrifuged at 1000× g for 5 min at 4 °C. The supernatant was discarded, the pellets were resuspended in 1 mL of cold PBS, the number of cells was determined in each sample and the cellular suspension was centrifuged again. PBS was discarded, and the pellets were stored covered with 30-µL PBS at –70 °C. The following day, the cells were suspended in 0.5 mL of ice-cold extraction buffer (0.1% Triton-X (Polish Chemical Reagents, Gliwice, Poland) and 0.6% sulfosalicylic acid (Sigma Aldrich) in a potassium phosphate buffer with EDTA (Sigma Aldrich)) and sonicated in icy water for 3 min with vortexing every 30 s. The cells were frozen once again at −80 °C, defrosted on ice and frozen once again. Following the second freeze–thaw cycle, the cells were centrifuged at 1500× g for 5 min at 4 °C, and then, immediately, the supernatant was transferred to prechilled Eppendorf tubes. The samples were divided into two parts: one was used to measure GSH, and the other one was derivatized by an addition of 4 µL of 2-vinylpyridine (diluted 1:10 with phosphate buffer) (Sigma Aldrich, St. Louis, MO, USA) to determine the GSSG content.
GSH measurements included an addition of 20 µL of the tested sample, blank or GSH standard, 120 µL of the mixture of an equal volume of DTNB solution (2 mg dissolved in 3 mL of phosphate buffer, Sigma Aldrich) and glutathione reductase (10 U in 3 mL of phosphate buffer, Sigma Aldrich, St. Louis, MO, USA) and 30 s of incubation to allow the conversion of GSSG to GSH. The final step included the addition of 60 µL of β-NADPH (2 mg dissolved in 3 mL of phosphate buffer, Sigma Aldrich). The absorbance was read immediately at 415 nm in a microplate reader (Bio-Rad), and the measurements were taken every 30 s for 2 min (6 readings in total). The amount of GSH was calculated on the basis of the calibration curve prepared using GSH (Sigma Aldrich, St. Louis, MO, USA) at concentrations ranging from 0.040 to 2.6 nmol/mL.
The quantification of GSSG in the test samples was performed according to the same procedure as GSH. The samples treated with 2-VP were incubated for one hour at room temperature, and then, 20 µL of the tested sample was analyzed using the same reagents which were applied in the GSH measurements. The amount of GSSG was calculated on the basis of the calibration curve, prepared using GSSG (Sigma Aldrich) at concentrations of 0.040–2.6 nmol/mL. The results are presented as mean ± SD, n = 6–8 and expressed as nmol per […].

IC50 (MCF-7 cells) [µM] | SMILES | GSH (MDA-MB-231 cells; MDA-MB-231, 1/2 × IC50, 24 h) [nmol/1 mln Cells] | GSH:GSSG Ratio (MDA-MB-231 cells; MDA-MB-231, 1/2 × IC50, 24 h) | GSSG (MDA-MB-231 cells; MDA-MB-231, 1/2 × IC50, 24 h) [nmol/1 mln Cells] | GSH (MDA-MB-231 cells; MDA-MB-231, 1/4 × IC50, 24 h) [nmol/1 mln Cells] | GSH:GSSG Ratio (MDA-MB-231 cells; MDA-MB-231, 1/4 × IC50, 24 h) | GSSG (MDA-MB-231 cells; MDA-MB-231, 1/4 × IC50, 24 h) [nmol/1 mln Cells]
430 ± 119 | CN(C)C(=N)N=C(N)NS(=O)(=O)c1ccccc1Br [Compound 4] | 242.1 ± 13.7 | 12.3 | 19.6 ± 1.4 | 250.2 ± 12.1 | 12.5 | 19.9 ± 2.3
55.1 ± 2.74 | CN(C)C(=N)N=C(N)NS(=O)(=O)c1ccccc1F [Compound 7] | 248.7 ± 13.3 | 11.3 | 21.9 ± 2.9 | 265.0 ± 15.9 | 11.8 | 22.5 ± 0.9
12.6 ± 1.2 | CN(C)C(=N)N=C(N)NS(=O)(=O)c1ccccc1Cl [Compound 1] | 242.0 ± 47.0 | 12.1 | 19.9 ± 2.0 | 238.0 ± 4.3 | 12.2 | 19.5 ± 2.2
